Assay results from ChEMBL document CHEMBL1126313, “Cysteine protease inhibition by azapeptide esters” (J Med Chem, 1992).

target: T1, Papain (Carica papaya) (UniProt P00784); assay: The compound was tested for Rate of Inhibition of Papain.
T1 sequence (whole entry): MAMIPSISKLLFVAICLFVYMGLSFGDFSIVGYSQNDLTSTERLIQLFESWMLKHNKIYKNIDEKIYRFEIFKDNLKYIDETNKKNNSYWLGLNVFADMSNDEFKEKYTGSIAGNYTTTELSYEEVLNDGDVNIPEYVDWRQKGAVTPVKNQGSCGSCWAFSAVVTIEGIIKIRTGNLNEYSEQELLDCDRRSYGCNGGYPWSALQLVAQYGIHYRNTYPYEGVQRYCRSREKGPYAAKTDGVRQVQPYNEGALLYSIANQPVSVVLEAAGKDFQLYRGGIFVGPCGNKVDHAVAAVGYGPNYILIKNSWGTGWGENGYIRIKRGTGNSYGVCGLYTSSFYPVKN

SMILES | ki/Ki
CC(=O)N[C@@H](Cc1ccccc1)C(=O)NNC(=O)Oc1ccccc1 | > 11000 M⁻¹ s⁻¹
COC(=O)NNC(=O)[C@H](Cc1ccccc1)NC(C)=O | 13 M⁻¹ s⁻¹
CC(=O)N[C@@H](Cc1ccccc1)C(=O)NNC(=O)OCC(C)C | 18 M⁻¹ s⁻¹
CC(=O)N[C@@H](Cc1ccccc1)C(=O)NN(C)C(=O)OCC(C)C | 0.02 M⁻¹ s⁻¹
